Measured values taken from patent US20240383869A1, “ARYLACETYL INHIBITORS OF TG2 AND USES THEREOF” (UNIVERSITY OF OTTAWA, priority 2021, published 2024).
Where two headings read alike, the source gives them in different places.

Assays:
[1] = PAMPA passive diffusion across a lipid membrane; type: in vitro ADME
Protocol: Passive diffusion across a lipid membrane was measured by PAMPA for both inhibitors 72 and 74. The values shown in Table 6 indicate both compounds were at least moderately permeant.

[2] = tested on: MDCK − MDR1; assay: MDCK-MDR1 permeability; type: in vitro ADME; details: for MDCK − MDR1 Papp (A→B): apical to basolateral; for MDCK − MDR1 Papp (B→A): basolateral to apical
[3] = tested on: SCC-13 cells; assay: ECS cell invasion through Matrigel (Transwell); type: cell-based; details: 0-100 μM inhibitor, 18 h, read-out: EC50 for inhibition of ECS invasion
Protocol: One well-known property of tumour-initiating cells associated with cancer metastasis is the enhanced ability to invade Matrigel (collagen). For example, it has been shown that epidermal cancer stem (ECS) cells invade Matrigel more efficiently than non-stem cancer cells, and that these properties are associated with enhanced tumour formation (Adhikary, G. et al., PLoS ONE 2013, 8, e84324. https://doi.org/10.1371/journal.pone.0084324). We have shown previously that ˜20 μM of NC9 and 3.9 μM of VA4 can reduce ECS cell invasion through Matrigel by ˜50% relative to vehicle-treated cells (Akbar, A. et al., J. Med. Chem. 2017, 60, 7910-7927. https://doi.org/10.1021/acs.jmedchem.7b01070; Fisher, M. L. et al., Oncotarget 2015, 6, 20525-20539. https://doi.org/10.18632/oncotarget.3890).
Materials and Methods for cell invasion data. To measure cell invasion, Matrigel (Corning, catalogue no. 354234) was diluted to 250 μg/mL and 120 μL was added to the upper chambers of a Transwell plate (Corning, no. 353097, 1-cm diameter, 8-μm pore size) and allowed to solidify. SCC-13 cells were suspended in spheroid medium (Fisher, M. L. et al., Cancer Res. 2016, 76, 7265-7275. https://doi.org/10.1158/0008-5472.can-16-2032; Adhikary, G. et al., Carcinogenesis 2015, 36, 800-810. https://doi.org/10.1093/carcin/bgv064) containing 1% foetal calf serum (FCS), and 20,000 cells were plated into each upper chamber atop the Matrigel. The bottom chamber contained spheroid medium supplemented with 10% FCS and 0-100 μM of inhibitor. After incubation for 18 h in a 37° C. incubator, cells in the top chamber were removed with a swab and cells on the lower surface of the membrane were fixed with 4% paraformaldehyde and the nuclei were stained with 4′,6-diamidino-2-phenylindole. Cell number was counted in multiple fields (n=4) using a fluorescence microscope, normalized with respect to the number counted in the presence of vehicle only, and expressed as mean±standard deviation.

[4] = Protein binding; type: in vitro ADME
[5] = Plasma stability; type: in vitro ADME
[6] = target: T1, hTG2 (Homo sapiens, UniProt P21980); assay: biochemical; details: for Ki: read-out: KI (converted); for inactivation of TG2: isozyme selectivity, normalized [I]/α
T1 sequence (P21980 1-687): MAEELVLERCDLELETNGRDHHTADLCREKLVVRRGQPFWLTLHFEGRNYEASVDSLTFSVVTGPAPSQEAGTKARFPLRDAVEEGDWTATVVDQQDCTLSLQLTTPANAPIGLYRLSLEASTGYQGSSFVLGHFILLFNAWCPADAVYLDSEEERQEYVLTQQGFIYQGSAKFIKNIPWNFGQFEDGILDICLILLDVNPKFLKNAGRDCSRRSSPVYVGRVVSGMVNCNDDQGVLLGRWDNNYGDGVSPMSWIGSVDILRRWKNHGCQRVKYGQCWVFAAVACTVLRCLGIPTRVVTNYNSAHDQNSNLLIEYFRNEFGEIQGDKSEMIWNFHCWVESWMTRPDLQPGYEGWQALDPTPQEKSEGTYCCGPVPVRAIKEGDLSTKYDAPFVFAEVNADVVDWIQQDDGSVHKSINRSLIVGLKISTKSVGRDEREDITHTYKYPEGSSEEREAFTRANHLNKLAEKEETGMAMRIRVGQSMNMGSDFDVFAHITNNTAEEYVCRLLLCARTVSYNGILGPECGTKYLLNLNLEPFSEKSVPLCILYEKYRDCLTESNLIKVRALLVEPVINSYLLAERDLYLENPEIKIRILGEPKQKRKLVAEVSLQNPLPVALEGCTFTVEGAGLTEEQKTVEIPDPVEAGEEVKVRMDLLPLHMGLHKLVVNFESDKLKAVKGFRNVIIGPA

[7] = Metabolic stability in human hepatocyte model; type: in vitro ADME; details: hepatocytes; for hepatocyte CLint: calculated intrinsic clearance; for half-life: read-out: Hepatocyte t½
Protocol: The metabolic stabilities of inhibitors 72 and 74 were also evaluated in a human hepatocyte model. The half-lives and calculated intrinsic clearance shown in Table 6 are indicative of moderate stability.

[8] = fit to saturation kinetics model, 25° C., pH 6.95, 100 μM AL5

SMILES	PAMPA −Log [Pe (cm/s)] [1]	MDCK − MDR1 Papp (A→B) [2]	MDCK − MDR1 Papp (B→A) [2]	EC50 [3]	Protein Binding [4]	Protein Binding Recovery [4]	Plasma t½ [5]	Ki [6, 8]	inactivation of TG2 [6]	hepatocyte CLint [7]	half-life [7]	kinact/KI ([6]; pH 6.95)	MDCK − MDR1 Efflux Ratio [2]	kinact ([6]; fit to saturation kinetics model, 25° C., pH 6.95, 100 μM AL5, read-out: kinact (converted))	kinact/KI ([6]; fit to saturation kinetics model, 25° C., pH 6.95, 100 μM AL5, read-out: kinact/KI (converted))
C=CC(=O)NCCCC[C@H](NC(=O)Cc1ccccc1F)C(=O)N1CCN(C(=O)c2cccc3ccccc23)CC1 [Inhibitor 72, (S)-N-(6-(4-(1-naphthoyl)piperazin-1-yl)-5-(2-(2-fluorophenyl)acetamido)-6-oxohexyl)acrylamide]	5.44	0.29 10^−6 cm/s	18.2 10^−6 cm/s	77 µM	84%	86%	17.92 h	1 ± 0.2 µM	inactivated TG2 almost completely, in less than five minutes	2.37 µL/min/1e6 cells	9.73 h				
C=CC(=O)NCCCC[C@H](NC(=O)OCc1ccccc1)C(=O)N1CCN(C(=O)c2cccc3ccccc23)CC1 [AA9, reference compound]									inactivated TG2 almost completely, in less than five minutes			4070 M⁻¹ s⁻¹			
C=CC(=O)NCCCC[C@H](NC(=O)Cc1ccccc1C)C(=O)N1CCN(C(=O)c2cccc3ccccc23)CC1 [Inhibitor 74, (S)-N-(6-(4-(1-naphthoyl)piperazin-1-yl)-5-(2-(2-methylphenyl)acetamido)-6-oxohexyl)acrylamide]	5.03	0.32 10^−6 cm/s	16.5 10^−6 cm/s	119 ± 5 µM	85%	93%	9.47 h	6.1 ± 1.8 µM	inactivated TG2 almost completely, in less than five minutes	5.58 µL/min/1e6 cells	4.18 h		51.6	0.035 s⁻¹	5870 M⁻¹ s⁻¹
